Assay: Deodorant efficacy test: odour intensity of incubated axillary sweat rated by an expert panel
Design: species or system humaine
Details: 24 heures d'incubation à 37°C, versus control sweat without active, scale 0-4
Procedure: Des recueils de sueur axillaire sont effectués en sauna sur 6 volontaires, les échantillons de sueur individuelle, conservés dans la glace pendant quelques heures, sont alors pratiquement inodores. Ils sont ensuite mélangés et répartis en aliquots de 1 ml. Les actifs sont rajoutés à ces aliquots, puis mis à incuber à l'étuve 37°C. Après 24 heures d'incubation, un jury d'experts évalue l'intensité de l'odeur comparativement à un échantillon témoin : 1 ml de sueur incubée sans ajout d'actif. L'intensité est évaluée sur une échelle de 0 (pas d'odeur) à 4 (très forte odeur).
Les résultats sont exprimés en % de variation de l'intensité de l'odeur comparativement à cet échantillon de sueur témoin (moyenne des % de variation à T24h). Δ = ((intensité odeur de l'échantillon témoin−intensité odeur de l'échantillon avec actif))/(intensité odeur de l'échantillon témoin) × 100 [formula]

Aluminium chlorohydrate [ACH]
% de diminution de l'intensité de l'odeur (0,1 mg MA/ml de sueur): -35%

CCCCCC[C@@H](O)C/C=C\CCCCCCCC(=O)[O-].CCCCCC[C@@H](O)C/C=C\CCCCCCCC(=O)[O-].[Zn+2] [(C), Ricinoleate de zinc]
% de diminution de l'intensité de l'odeur (0,3 mg MA/ml de sueur): -4%

Salicylate de zinc [(A)]
% de diminution de l'intensité de l'odeur (0,1 mg MA/ml de sueur): -21%

Oc1cc(Cl)ccc1Oc1ccc(Cl)cc1Cl [(B), 2,4,4'-trichloro-2'-hydroxydiphényléther]
% de diminution de l'intensité de l'odeur (0,4 mg MA/ml de sueur): -49%
